Data reported in patent US9809623B2, “α4β7 peptide monomer and dimer antagonists” (Protagonist Therapeutics, Inc., priority 2014, dated 2017).
Numbered stars: 1 amine (or outer) side, 2 acyl side, 3 side chain; on linkers, the order of the positions; unused ones are H or OH. Bridge positions count the residues as written; N and C are the ends. Square brackets hold non-standard residues; d marks the D form. Peptide text beside a SMILES is read from it. I, II: the chains in the order shown. Phe(3,4-Cl2) = N[C@@H](Cc1ccc(Cl)c(Cl)c1)C(=O)O; Phe(4-COOH) = N[C@@H](Cc1ccc(C(=O)O)cc1)C(=O)O; Phe(4-tBu) = CC(C)(C)c1ccc(C[C@H](N)C(=O)O)cc1; Phe(2,4-Cl2) = N[C@@H](Cc1ccc(Cl)cc1Cl)C(=O)O; Phe(2-CONH2) = NC(=O)c1ccccc1C[C@H](N)C(=O)O; Bip = N[C@@H](Cc1ccc(-c2ccccc2)cc1)C(=O)O; Diglycolyl = O=C(COCC(=O)[*:2])[*:1]; NMeR = CN[C@@H](CCCNC(=N)N)C(=O)O; Pen = CC(C)(S)[C@H](N)C(=O)O; Dab = NCC[C@H](N)C(=O)O

Biological target: α4β7 (Homo sapiens, UniProt P13612+P26010)
Assay: α4β7-MAdCAM Cell Adhesion Assay (RPMI 8866 human cells)
Type: cell-based
Design: host or cells: RPMI 8866 human B lymphoblastoid cells
Details: Table 3-B, Potency (α4β7); range classes; read-out: α4β7 cell (Hu) IC50
Method in brief: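 Adhesion read-out: MTT absorbance at 570 nm minus no-cell wells, after three washes. Plates coated with rh MAdCAM-1/Fc received peptide dilutions plus 200,000 RPMI 8866 cells in Mn2+ (1 mM)-supplemented DMEM, 0.1% BSA, HEPES pH 7, incubated 30-45 min, 37 °C.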

α4β7, sequence (P13612 34-1032): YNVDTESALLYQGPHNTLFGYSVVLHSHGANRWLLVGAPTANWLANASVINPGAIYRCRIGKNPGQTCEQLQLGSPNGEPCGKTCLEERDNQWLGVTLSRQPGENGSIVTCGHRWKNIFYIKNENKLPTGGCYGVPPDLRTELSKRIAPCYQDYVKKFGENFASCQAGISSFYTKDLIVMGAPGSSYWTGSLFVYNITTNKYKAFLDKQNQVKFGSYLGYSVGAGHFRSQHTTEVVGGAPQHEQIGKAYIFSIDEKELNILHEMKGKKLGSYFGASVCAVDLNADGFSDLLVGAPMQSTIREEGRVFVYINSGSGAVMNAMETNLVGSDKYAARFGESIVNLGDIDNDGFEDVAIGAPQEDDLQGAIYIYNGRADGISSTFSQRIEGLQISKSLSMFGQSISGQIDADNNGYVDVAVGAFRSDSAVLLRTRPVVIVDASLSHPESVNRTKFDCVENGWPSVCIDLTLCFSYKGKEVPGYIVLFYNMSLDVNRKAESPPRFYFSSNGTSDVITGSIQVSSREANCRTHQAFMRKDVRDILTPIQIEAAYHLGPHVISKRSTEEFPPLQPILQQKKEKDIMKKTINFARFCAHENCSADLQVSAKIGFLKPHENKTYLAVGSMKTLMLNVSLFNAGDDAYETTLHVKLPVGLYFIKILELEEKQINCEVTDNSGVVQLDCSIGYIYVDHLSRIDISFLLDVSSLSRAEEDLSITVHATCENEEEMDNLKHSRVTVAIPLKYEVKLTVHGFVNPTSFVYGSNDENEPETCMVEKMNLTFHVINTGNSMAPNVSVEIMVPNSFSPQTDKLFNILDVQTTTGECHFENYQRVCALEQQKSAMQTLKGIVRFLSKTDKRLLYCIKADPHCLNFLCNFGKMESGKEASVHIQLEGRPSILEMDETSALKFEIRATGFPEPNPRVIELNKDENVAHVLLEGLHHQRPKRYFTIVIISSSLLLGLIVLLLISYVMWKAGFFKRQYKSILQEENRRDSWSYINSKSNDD
α4β7, sequence (P26010 20-798): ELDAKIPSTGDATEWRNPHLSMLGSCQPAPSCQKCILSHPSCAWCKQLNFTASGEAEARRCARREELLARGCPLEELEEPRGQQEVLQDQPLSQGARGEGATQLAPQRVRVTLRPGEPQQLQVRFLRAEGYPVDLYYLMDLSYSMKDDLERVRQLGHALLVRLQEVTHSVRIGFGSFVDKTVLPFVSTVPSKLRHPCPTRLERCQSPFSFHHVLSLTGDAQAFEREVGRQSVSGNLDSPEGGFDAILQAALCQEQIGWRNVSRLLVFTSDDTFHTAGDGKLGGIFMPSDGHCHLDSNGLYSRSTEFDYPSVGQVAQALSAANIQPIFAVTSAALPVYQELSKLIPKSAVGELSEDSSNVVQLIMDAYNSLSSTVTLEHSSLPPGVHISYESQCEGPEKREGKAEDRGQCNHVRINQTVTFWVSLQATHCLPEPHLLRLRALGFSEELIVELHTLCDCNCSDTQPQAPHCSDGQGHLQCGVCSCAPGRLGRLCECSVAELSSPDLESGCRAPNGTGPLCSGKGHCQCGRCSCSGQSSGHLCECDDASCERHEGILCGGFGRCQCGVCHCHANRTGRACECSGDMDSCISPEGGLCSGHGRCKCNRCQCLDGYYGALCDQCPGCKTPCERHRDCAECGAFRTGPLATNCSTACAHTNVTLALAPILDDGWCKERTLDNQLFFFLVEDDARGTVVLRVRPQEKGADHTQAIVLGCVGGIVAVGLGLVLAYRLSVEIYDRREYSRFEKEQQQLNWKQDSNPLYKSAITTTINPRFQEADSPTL

CC(=O)N[C@@H]1C(=O)N(C)[C@@H](CCCNC(=N)N)C(=O)N[C@@H](CO)C(=O)N[C@@H](CC(=O)O)C(=O)N[C@@H]([C@@H](C)O)C(=O)N[C@@H](CC(C)C)C(=O)N[C@H](C(=O)N[C@@H](Cc2c[nH]c3ccccc23)C(=O)N2CCC[C@@H]2C(=O)N[C@@H](CCCCNC(=O)COCC(=O)NCCCC[C@H](NC(=O)[C@H]2CCCN2C(=O)[C@H](Cc2c[nH]c3ccccc23)NC(=O)[C@H]2NC(=O)[C@H](CC(C)C)NC(=O)[C@H]([C@@H](C)O)NC(=O)[C@H](CC(=O)O)NC(=O)[C@H](CO)NC(=O)[C@H](CCCNC(=N)N)N(C)C(=O)[C@@H](NC(C)=O)C(C)(C)SSC2(C)C)C(N)=O)C(N)=O)C(C)(C)SSC1(C)C [compound 96] (I: Ac-[Pen][NMeR]SDTL[Pen]W[dP]K-NH2 / II: Ac-[Pen][NMeR]SDTL[Pen]W[dP]K-NH2; disulfide I:1-I:7, II:1-II:7; linker I:10-II:10 via Diglycolyl)
IC50: 50 to 100 nM

CC(=O)N[C@@H]1C(=O)N(C)[C@@H](CCCNC(=N)N)C(=O)N[C@@H](CO)C(=O)N[C@@H](CC(=O)O)C(=O)N[C@@H]([C@@H](C)O)C(=O)N[C@@H](CC(C)C)C(=O)N[C@H](C(=O)N[C@@H](Cc2c[nH]c3ccccc23)C(=O)N[C@@H](CCC(=O)O)C(=O)N[C@@H](CCNC(=O)COCC(=O)NCC[C@H](NC(=O)[C@H](CCC(=O)O)NC(=O)[C@H](Cc2c[nH]c3ccccc23)NC(=O)[C@H]2NC(=O)[C@H](CC(C)C)NC(=O)[C@H]([C@@H](C)O)NC(=O)[C@H](CC(=O)O)NC(=O)[C@H](CO)NC(=O)[C@H](CCCNC(=N)N)N(C)C(=O)[C@@H](NC(C)=O)C(C)(C)SSC2(C)C)C(N)=O)C(N)=O)C(C)(C)SSC1(C)C [compound 97] (I: Ac-[Pen][NMeR]SDTL[Pen]WE[Dab]-NH2 / II: Ac-[Pen][NMeR]SDTL[Pen]WE[Dab]-NH2; disulfide I:1-I:7, II:1-II:7; linker I:10-II:10 via Diglycolyl)
IC50: < 10 nM

CC(=O)N[C@@H]1C(=O)N(C)[C@@H](CCCNC(=N)N)C(=O)N[C@@H](CO)C(=O)N[C@@H](CC(=O)O)C(=O)N[C@@H]([C@@H](C)O)C(=O)N[C@@H](CC(C)C)C(=O)N[C@H](C(=O)N[C@@H](Cc2ccccc2C(N)=O)C(=O)N[C@H](CCC(=O)O)C(=O)N[C@H](CCCCNC(=O)COCC(=O)NCCCC[C@@H](NC(=O)[C@@H](CCC(=O)O)NC(=O)[C@H](Cc2ccccc2C(N)=O)NC(=O)[C@H]2NC(=O)[C@H](CC(C)C)NC(=O)[C@H]([C@@H](C)O)NC(=O)[C@H](CC(=O)O)NC(=O)[C@H](CO)NC(=O)[C@H](CCCNC(=N)N)N(C)C(=O)[C@@H](NC(C)=O)C(C)(C)SSC2(C)C)C(N)=O)C(N)=O)C(C)(C)SSC1(C)C [compound 98] (I: Ac-[Pen][NMeR]SDTL[Pen][Phe(2-CONH2)][dE][dK]-NH2 / II: Ac-[Pen][NMeR]SDTL[Pen][Phe(2-CONH2)][dE][dK]-NH2; disulfide I:1-I:7, II:1-II:7; linker I:10-II:10 via Diglycolyl)
IC50: 50 to 100 nM

CC(=O)N[C@@H]1C(=O)N(C)[C@@H](CCCNC(=N)N)C(=O)N[C@@H](CO)C(=O)N[C@@H](CC(=O)O)C(=O)N[C@@H]([C@@H](C)O)C(=O)N[C@@H](CC(C)C)C(=O)N[C@H](C(=O)N[C@@H](Cc2ccc(C(=O)O)cc2)C(=O)N[C@H](CCC(=O)O)C(=O)N[C@H](CCCCNC(=O)COCC(=O)NCCCC[C@@H](NC(=O)[C@@H](CCC(=O)O)NC(=O)[C@H](Cc2ccc(C(=O)O)cc2)NC(=O)[C@H]2NC(=O)[C@H](CC(C)C)NC(=O)[C@H]([C@@H](C)O)NC(=O)[C@H](CC(=O)O)NC(=O)[C@H](CO)NC(=O)[C@H](CCCNC(=N)N)N(C)C(=O)[C@@H](NC(C)=O)C(C)(C)SSC2(C)C)C(N)=O)C(N)=O)C(C)(C)SSC1(C)C [compound 100] (I: Ac-[Pen][NMeR]SDTL[Pen][Phe(4-COOH)][dE][dK]-NH2 / II: Ac-[Pen][NMeR]SDTL[Pen][Phe(4-COOH)][dE][dK]-NH2; disulfide I:1-I:7, II:1-II:7; linker I:10-II:10 via Diglycolyl)
IC50: < 10 nM

CC(=O)N[C@@H]1C(=O)N(C)[C@@H](CCCNC(=N)N)C(=O)N[C@@H](CO)C(=O)N[C@@H](CC(=O)O)C(=O)N[C@@H]([C@@H](C)O)C(=O)N[C@@H](CC(C)C)C(=O)N[C@H](C(=O)N[C@@H](Cc2ccc(Cl)cc2Cl)C(=O)N[C@H](CCC(=O)O)C(=O)N[C@H](CCCCNC(=O)COCC(=O)NCCCC[C@@H](NC(=O)[C@@H](CCC(=O)O)NC(=O)[C@H](Cc2ccc(Cl)cc2Cl)NC(=O)[C@H]2NC(=O)[C@H](CC(C)C)NC(=O)[C@H]([C@@H](C)O)NC(=O)[C@H](CC(=O)O)NC(=O)[C@H](CO)NC(=O)[C@H](CCCNC(=N)N)N(C)C(=O)[C@@H](NC(C)=O)C(C)(C)SSC2(C)C)C(N)=O)C(N)=O)C(C)(C)SSC1(C)C [compound 101] (I: Ac-[Pen][NMeR]SDTL[Pen][Phe(2,4-Cl2)][dE][dK]-NH2 / II: Ac-[Pen][NMeR]SDTL[Pen][Phe(2,4-Cl2)][dE][dK]-NH2; disulfide I:1-I:7, II:1-II:7; linker I:10-II:10 via Diglycolyl)
IC50: 50 to 100 nM

CC(=O)N[C@@H]1C(=O)N(C)[C@@H](CCCNC(=N)N)C(=O)N[C@@H](CO)C(=O)N[C@@H](CC(=O)O)C(=O)N[C@@H]([C@@H](C)O)C(=O)N[C@@H](CC(C)C)C(=O)N[C@H](C(=O)N[C@@H](Cc2ccc(Cl)c(Cl)c2)C(=O)N[C@H](CCC(=O)O)C(=O)N[C@H](CCCCNC(=O)COCC(=O)NCCCC[C@@H](NC(=O)[C@@H](CCC(=O)O)NC(=O)[C@H](Cc2ccc(Cl)c(Cl)c2)NC(=O)[C@H]2NC(=O)[C@H](CC(C)C)NC(=O)[C@H]([C@@H](C)O)NC(=O)[C@H](CC(=O)O)NC(=O)[C@H](CO)NC(=O)[C@H](CCCNC(=N)N)N(C)C(=O)[C@@H](NC(C)=O)C(C)(C)SSC2(C)C)C(N)=O)C(N)=O)C(C)(C)SSC1(C)C [compound 102] (I: Ac-[Pen][NMeR]SDTL[Pen][Phe(3,4-Cl2)][dE][dK]-NH2 / II: Ac-[Pen][NMeR]SDTL[Pen][Phe(3,4-Cl2)][dE][dK]-NH2; disulfide I:1-I:7, II:1-II:7; linker I:10-II:10 via Diglycolyl)
IC50: 100 to 500 nM

COc1ccc(C[C@H](NC(=O)[C@H]2NC(=O)[C@H](CC(C)C)NC(=O)[C@H]([C@@H](C)O)NC(=O)[C@H](CC(=O)O)NC(=O)[C@H](CO)NC(=O)[C@H](CCCNC(=N)N)N(C)C(=O)[C@@H](NC(C)=O)C(C)(C)SSC2(C)C)C(=O)N[C@H](CCC(=O)O)C(=O)N[C@H](CCCCNC(=O)COCC(=O)NCCCC[C@@H](NC(=O)[C@@H](CCC(=O)O)NC(=O)[C@H](Cc2ccc(OC)cc2)NC(=O)[C@H]2NC(=O)[C@H](CC(C)C)NC(=O)[C@H]([C@@H](C)O)NC(=O)[C@H](CC(=O)O)NC(=O)[C@H](CO)NC(=O)[C@H](CCCNC(=N)N)N(C)C(=O)[C@@H](NC(C)=O)C(C)(C)SSC2(C)C)C(N)=O)C(N)=O)cc1 [compound 103] (I: Ac-[Pen][NMeR]SDTL[Pen]Y(Me)[dE][dK]-NH2 / II: Ac-[Pen][NMeR]SDTL[Pen]Y(Me)[dE][dK]-NH2; disulfide I:1-I:7, II:1-II:7; linker I:10-II:10 via Diglycolyl)
IC50: 25 to 50 nM

CC(=O)N[C@@H]1C(=O)N(C)[C@@H](CCCNC(=N)N)C(=O)N[C@@H](CO)C(=O)N[C@@H](CC(=O)O)C(=O)N[C@@H]([C@@H](C)O)C(=O)N[C@@H](CC(C)C)C(=O)N[C@H](C(=O)N[C@@H](Cc2c[nH]c3ccccc23)C(=O)N[C@@H](Cc2ccc(C(=O)O)cc2)C(=O)N[C@H](CCCCNC(=O)COCC(=O)NCCCC[C@@H](NC(=O)[C@H](Cc2ccc(C(=O)O)cc2)NC(=O)[C@H](Cc2c[nH]c3ccccc23)NC(=O)[C@H]2NC(=O)[C@H](CC(C)C)NC(=O)[C@H]([C@@H](C)O)NC(=O)[C@H](CC(=O)O)NC(=O)[C@H](CO)NC(=O)[C@H](CCCNC(=N)N)N(C)C(=O)[C@@H](NC(C)=O)C(C)(C)SSC2(C)C)C(N)=O)C(N)=O)C(C)(C)SSC1(C)C [compound 105] (I: Ac-[Pen][NMeR]SDTL[Pen]W[Phe(4-COOH)][dK]-NH2 / II: Ac-[Pen][NMeR]SDTL[Pen]W[Phe(4-COOH)][dK]-NH2; disulfide I:1-I:7, II:1-II:7; linker I:10-II:10 via Diglycolyl)
IC50: 50 to 100 nM

CC(=O)N[C@@H]1C(=O)N(C)[C@@H](CCCNC(=N)N)C(=O)N[C@@H](CO)C(=O)N[C@@H](CC(=O)O)C(=O)N[C@@H]([C@@H](C)O)C(=O)N[C@@H](CC(C)C)C(=O)N[C@H](C(=O)N[C@@H](Cc2ccc(C(C)(C)C)cc2)C(=O)N[C@H](CCC(=O)O)C(=O)N[C@H](CCCCNC(=O)COCC(=O)NCCCC[C@@H](NC(=O)[C@@H](CCC(=O)O)NC(=O)[C@H](Cc2ccc(C(C)(C)C)cc2)NC(=O)[C@H]2NC(=O)[C@H](CC(C)C)NC(=O)[C@H]([C@@H](C)O)NC(=O)[C@H](CC(=O)O)NC(=O)[C@H](CO)NC(=O)[C@H](CCCNC(=N)N)N(C)C(=O)[C@@H](NC(C)=O)C(C)(C)SSC2(C)C)C(N)=O)C(N)=O)C(C)(C)SSC1(C)C [compound 106] (I: Ac-[Pen][NMeR]SDTL[Pen][Phe(4-tBu)][dE][dK]-NH2 / II: Ac-[Pen][NMeR]SDTL[Pen][Phe(4-tBu)][dE][dK]-NH2; disulfide I:1-I:7, II:1-II:7; linker I:10-II:10 via Diglycolyl)
IC50: < 10 nM

CC(=O)N[C@@H]1C(=O)N(C)[C@@H](CCCNC(=N)N)C(=O)N[C@@H](CO)C(=O)N[C@@H](CC(=O)O)C(=O)N[C@@H]([C@@H](C)O)C(=O)N[C@@H](CC(C)C)C(=O)N[C@H](C(=O)N[C@@H](Cc2ccc(-c3ccccc3)cc2)C(=O)N[C@H](CCC(=O)O)C(=O)N[C@H](CCCCNC(=O)COCC(=O)NCCCC[C@@H](NC(=O)[C@@H](CCC(=O)O)NC(=O)[C@H](Cc2ccc(-c3ccccc3)cc2)NC(=O)[C@H]2NC(=O)[C@H](CC(C)C)NC(=O)[C@H]([C@@H](C)O)NC(=O)[C@H](CC(=O)O)NC(=O)[C@H](CO)NC(=O)[C@H](CCCNC(=N)N)N(C)C(=O)[C@@H](NC(C)=O)C(C)(C)SSC2(C)C)C(N)=O)C(N)=O)C(C)(C)SSC1(C)C [compound 108] (I: Ac-[Pen][NMeR]SDTL[Pen][Bip][dE][dK]-NH2 / II: Ac-[Pen][NMeR]SDTL[Pen][Bip][dE][dK]-NH2; disulfide I:1-I:7, II:1-II:7; linker I:10-II:10 via Diglycolyl)
IC50: 10 to 25 nM
